Consider one compound from patent publication US20210059977A1, “COMBINATION THERAPIES FOR THE TREATMENT OF AMYOTROPHIC LATERAL SCLEROSIS AND RELATED DISORDERS” (The General Hospital Corporation, priority 2018, published 2021).

Holding throughout (type): in vivo, mice
Experiment [1] relates to SOD1^G93A mouse model. Briefly: Neurological scoring (ALS TDI criteria). The note with it: 6.3 mg/kg i.p. The method, then: Beginning at P50, weight and neurological score (using the ALS TDI criteria) (Hatzipetros, T., et al. (2015). “A Quick Phenotypic Neurological Scoring System for Evaluating Disease Progression in the SOD1-G93A Mouse Model of ALS.” J Vis Exp(104); Leitner M., et. al. (2009). “Working with ALS mice: Guidelines for preclinical testing & colony management.” The Jackson Laboratory) were recorded for each mouse every 5 days until death or euthanasia. ALS TDI criteria are as follows: • Score of 0: Full extension of hind legs away from lateral midline when mouse is suspended by its tail, and mouse can hold this for two seconds, suspended two to three times. • Score of 1: Collapse or partial collapse of leg extension towards lateral midline (weakness) or trembling of hind legs during tail suspension. • Score of 2: Toes curl under at least twice during walking of 12 inches, or any part of foot is dragging along cage bottom/table. • Score of 3: Rigid paralysis or minimal joint movement, foot not being used for generating forward motion. • Score of 4: Mouse cannot right itself within 15 seconds after being placed on either side. *Mice were euthanized upon obtaining a score of 4.
(§1) 149 male and female age- and litter-matched transgenic (Tg) SOD1^G93A and wild-type (Wt) SOD1^G93A mice were used with the following breakdown: Females (19 WtSOD1-Vehicle, 17 WtSOD1-Cromolyn, 19 TgSOD1-Vehicle, and 17 TgSOD1-Cromolyn) and Males (18 WtSOD1-Vehicle, 21 WtSOD1-Cromolyn, 21 TgSOD1-Vehicle, 17 TgSOD1-Cromolyn).

Experiment [2] concerns SOD1^G93A mouse model. The experiment in a line: Gait analysis (stride length and width). The settings on record: 6.3 mg/kg i.p. As to the method:
Gait Analysis Manual gait analysis was performed using a limb painting procedure similar to previous studies. Briefly, mice were first trained to traverse a horizontal corridor leading directly into their home cage by gentle nudges in the appropriate direction. On test days the bottoms of their hindlimbs were painted, by brushing with non-toxic food dye (Fisher Scientific), and the mice were allowed to walk the path to their home cage on a piece of paper. Three trials were performed at each experimental time point (P70, P90, P110, P130, P150). Stride length and width was determined by measuring the distance between the same points, on the ball mount region of the footprint, in two consecutive footprints and calculated from 2-3 hindpaw strides. Mean data from 4-6 strides across three trials was calculated.
as §1

The test system of experiment [3] is pro-inflammatory cytokines and chemokines in plasma. Briefly: Meso Scale Discovery multi-spot cytokine assay, plasma. The method, then:
Spinal cord frozen tissue was homogenized in ice-cold RIPA buffer (Thermo Fisher Scientific, #8990) supplemented with protease inhibitor cocktail (Thermo Fisher Scientific, #78430). Samples were centrifuged at 45,000 g for 30 minutes at 4° C. using an Optima TL ultracentrifuge and a TLA 120.2 rotor (Beckman Coulter). Expression levels of 10 pro-inflammatory cytokines and chemokines were assessed in the supernatants derived from spinal cord tissue or in the plasma, using an electrochemiluminescence-based multi-array method and MESO Quickplex SQ 120 system (MSD, Rockville, Md., USA). The 96-well V-PLEX Proinflammatory Mouse 1 Kit (Meso Scale Discovery, #K15048D) was used to measure simultaneously IFN-γ, IL-1β, IL-2, IL-4, IL-5, IL-6, CXCL1/KC/GRO, IL-10, IL-12, p70, and TNFα, following the manufacturer's instructions. Briefly, samples were diluted in the calibrator and added to the plate coated with an array of cytokine capture antibodies. Samples were incubated in the plate for 2 hours with shaking at room temperature, followed by washes with the wash buffer provided in the kit. The detection antibody solution was added to each well and the plate was incubated for 2 hours. The plate was washed with the wash buffer and the 2× Read Buffer T was added. The signal was immediately measured on a MESO QuickPlex SQ 120 instrument and was analyzed using the DISCOVERY WORKBENCH 4.0 software (Meso Scale Diagnostics, LLC., Rockville, Md., USA). Protein concentrations in the supernatants or the plasma samples were measured using the Pierce BCA protein assay kit (Thermo Scientific). Values in the graphs represent levels of cytokines normalized to the corresponding protein concentrations. […] Females (19 WtSOD1-Vehicle, 17 WtSOD1-Cromolyn, 19 TgSOD1-Vehicle, and 17 TgSOD1-Cromolyn) and Males (18 WtSOD1-Vehicle, 21 WtSOD1-Cromolyn, 21 TgSOD1-Vehicle, 17 TgSOD1-Cromolyn). […] The same pro-inflammatory panel from Meso Scale Discovery was used to assess the levels of cytokines and chemokines in the plasma of a subset of mice (Females: 13 WtSOD1-Vehicle, 15 WtSOD1-Cromolyn, 6 TgSOD1-Vehicle, and 6 TgSOD1-Cromolyn; and Males: 14 WtSOD1-Vehicle, 10 WtSOD1-Cromolyn, 6 TgSOD1-Vehicle, 3 TgSOD1-Cromolyn). We were able to measure 7 of the 10 pro-inflammatory cytokines in plasma which included IL-1β, IL-2, IL-5, IL-6, CXCL1, IL-10, and TNFα.

Take `O=C(O)c1cc(=O)c2c(OCC(O)COc3cccc4oc(C(=O)O)cc(=O)c34)cccc2o1` [cromolyn, cromolyn sodium]: the neurological score entry is “significantly delayed disease onset and progression” in experiment [1] (TgSOD1-Cromolyn vs TgSOD1-Vehicle, all mice, P90, P100, P110, P130, P140); “significant increase in neurological score in the female TgSOD1-Vehicle treated group compared to TgSOD1-Cromolyn group” in experiment [1] (female mice, P90, P100, P120, P130, P140); “significant increase in neurological score in male TgSOD1-Vehicle treated group compared to TgSOD1-Cromolyn group” in experiment [1] (male mice, P90, P100, P110). Further, in experiment [2] (TgSOD1 mice), the stride length entry was “no effect on stride length”. Moreover, the stride width result in experiment [2] (all groups, two-way ANOVA) was “no effect of treatment”. The “IL-10 levels in plasma” value in experiment [3] (TgSOD1-Cromolyn vs TgSOD1-Vehicle, p=0.0095) is listed as “significantly decreased”. Also, the “IL-2 levels in plasma” value in experiment [3] (TgSOD1-Cromolyn vs TgSOD1-Vehicle, p=0.0211) is given as “significantly decreased”. For the same compound, the “IL-6 levels in plasma” value in experiment [3] (TgSOD1-Cromolyn vs TgSOD1-Vehicle, p=0.0273) is listed as “significantly decreased”. Also, the “TNFα levels in plasma” value in experiment [3] (TgSOD1-Cromolyn vs TgSOD1-Vehicle, p=0.110) is reported as “trend towards a decrease”. The “IL-1β levels in plasma” value in experiment [3] (between groups) is recorded as “no statistically significant difference”. The “IL-5 levels in plasma” value in experiment [3] (between groups) is recorded as “no statistically significant difference”.
